From US20080096894A1, “Anti-Bacterial Compounds” (ASTON UNIVERSITY, priority 2005, published 2008)
Values after ≈ are worked out from the molar mass of the structure shown. Like-named read-outs stand apart in the source and are kept apart here.

Key:
Assay in all cases: MIC, agar dilution, multipoint inoculator
[1] = tested on: S. aureus; format: cell-based, Staphylococcus aureus; conditions: Staphylococcus aureus, upper value of MIC reading, read-out: MIC
Outline: (§1)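 Agar dilution on Mueller Hinton agar; a multipoint inoculator delivered 10^4 colony forming units per spot, and the MIC was taken for each compound.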

[2] = tested on: MRSA; format: cell-based, methicillin-resistant Staphylococcus aureus; conditions: Staphylococcus aureus, 18 h, upper value of MIC reading, read-out: MIC
Outline: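 Agar dilution MIC on Mueller Hinton agar, multipoint inoculator delivering 10^4 colony forming units per spot. MRSA values are ranges across ten clinical MRSA strains; S. aureus NCTC 6571 as reference strain.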

[3] = tested on: E. faecium; format: cell-based, Enterococcus faecium; conditions: Enterococcus faecium, upper value of MIC reading, read-out: MIC
Outline: as §1

[4] = tested on: S. epidemisis; format: cell-based, Staphylococcus epidermidis; conditions: Staphylococcus epidermidis, upper value of MIC reading, read-out: MIC
Outline: as §1

[5] = tested on: B. bronchiseptica; format: cell-based; conditions: Bordetella bronchiseptica, NCTC8344, 18 h; B. bronchiseptica NCTC 8344; upper value of MIC reading; read-out: MIC
Outline: as §1

[6] = tested on: E. faecalis; format: cell-based; conditions: Enterococcus faecalis, upper value of MIC reading, read-out: MIC
Outline: as §1

[7] = tested on: S. aboni; format: cell-based; conditions: S. aboni NCTC 6017; upper value of MIC reading
Outline: as §1

[8] = tested on: S. haemolyticus; format: cell-based; conditions: Staphylococcus haemolyticus, 18 h; S. haemolyticus Isolate 1; upper value of MIC reading; read-out: MIC
Outline: as §1

[9] = tested on: S. maltophilia; format: cell-based; conditions: Stenotrophomonas maltophilia, NCTC10257, 18 h; S. maltophilia NCTC 10257; upper value of MIC reading; read-out: MIC
Outline: as §1

[10] = tested on: E. coli; format: cell-based, Escherichia coli; conditions: Escherichia coli, 18 h, upper value of MIC reading
Protocol: (§2) This activity was measured using a multipoint inoculator method as follows. The MIC for each compound was measured using an agar dilution method (Onda, H., et al., Int. J. Antimicrob. Agents. 18, 263 (2001)) (Mueller Hinton agar) by means of a multipoint inoculator delivering 10^4 colony forming units per spot.

[11] = tested on: K. pneumoniae; format: cell-based, Klebsiella pneumoniae; conditions: Klebsiella pneumoniae, 18 h; K. pneumoniae 327; upper value of MIC reading; read-out: MIC
Protocol: as §2

[12] = tested on: S. marcesens; format: cell-based, Serratia marcescens; conditions: Serratia marcescens, 18 h; S. marcesens 4444; upper value of MIC reading; read-out: MIC
Protocol: as §2

[13] = tested on: P. auriginosa; format: cell-based, Pseudomonas aeruginosa; conditions: Pseudomonas aeruginosa, NCTC6749, 18 h; P. auriginosa NCTC 6749; upper value of MIC reading; read-out: MIC
Protocol: as §2

[14] = tested on: E. cloacae; format: cell-based, Enterobacter cloacae; conditions: Enterobacter cloacae, NCTC11582, 18 h; E. cloacae NCTC 11582; upper value of MIC reading; read-out: MIC
Protocol: as §2

[15] = NCTC6571, 18 h, S. aureus NCTC 6571
[16] = NCTC10788, 18 h, S. aureus NCTC 10788
[17] = NCTC7171, 18 h, E. faecium NCTC 7171
[18] = NCTC11047, 18 h, S. epidemisis NCTC 11047
[19] = NCTC5957, 18 h, E. faecalis NCTC 5957

SMILES	MIC ([1]; 18 h, S. aureus Cowan 1)	MIC [1, 15]	MIC [1, 16]	MIC ([2]; MRSA Isolate 1)	MIC ([2]; MRSA Isolate 2)	MIC ([2]; MRSA Isolate 3)	MIC ([2]; MRSA Isolate 4)	MIC ([2]; MRSA Isolate 5)	MIC ([2]; MRSA Isolate 6)	MIC ([2]; MRSA Isolate 7)	MIC ([2]; MRSA Isolate 8)	MIC ([2]; MRSA Isolate 9)	MIC ([2]; MRSA Isolate 10)	MIC ([3]; 18 h, E. faecium ACTCC 10541)	MIC [3, 17]	MIC ([4]; 18 h, S. epidemisis Isolate 1)	MIC [4, 18]	MIC [5]	MIC ([6]; 18 h, E. faecalis EBH1)	MIC ([6]; 18 h, E. faecalis Isolate 1)	further results
CC1(C)S[C@@H]2[C@H](NC(=O)[C@H](N)c3ccccc3)C(=O)N2[C@H]1C(=O)O [Amp., Ampicillin, reference compound]	0.05 µg/mL (≈ 0.143 µM)	0.05 µg/mL (≈ 0.143 µM)	0.05 µg/mL (≈ 0.143 µM)	0.12 µg/mL (≈ 0.343 µM)	8 µg/mL (≈ 22.9 µM)	8 µg/mL (≈ 22.9 µM)	8 µg/mL (≈ 22.9 µM)	8 µg/mL (≈ 22.9 µM)	8 µg/mL (≈ 22.9 µM)	8 µg/mL (≈ 22.9 µM)	8 µg/mL (≈ 22.9 µM)	8 µg/mL (≈ 22.9 µM)	8 µg/mL (≈ 22.9 µM)	2 µg/mL (≈ 5.72 µM)	1 µg/mL (≈ 2.86 µM)	8 µg/mL (≈ 22.9 µM)	4 µg/mL (≈ 11.4 µM)	1 µg/mL (≈ 2.86 µM)	0.05 µg/mL (≈ 0.143 µM)	0.05 µg/mL (≈ 0.143 µM)	MIC ([6]; 18 h, E. faecalis Isolate 2): 0.05 µg/mL (≈ 0.143 µM); MIC ([6]; 18 h, E. faecalis Isolate 3): 0.05 µg/mL (≈ 0.143 µM); MIC ([6]; 18 h, E. faecalis Isolate 4): 2 µg/mL (≈ 5.72 µM); MIC ([6]; 18 h, E. faecalis Isolate 5): 2 µg/mL (≈ 5.72 µM); MIC [6, 19]: 2 µg/mL (≈ 5.72 µM); MIC [7]: 0.05 µg/mL (≈ 0.143 µM); MIC [8]: 1 µg/mL (≈ 2.86 µM); MIC [9]: 16 µg/mL (≈ 45.8 µM); MIC ([10]; E. coli W3110R+): > 16 µg/mL; MIC ([10]; E. coli W3110R−): 1 µg/mL (≈ 2.86 µM); MIC [11]: > 16 µg/mL; MIC [12]: 8 µg/mL (≈ 22.9 µM); MIC [13]: 16 µg/mL (≈ 45.8 µM); MIC [14]: 16 µg/mL (≈ 45.8 µM)
Cc1onc(-c2c(F)cccc2Cl)c1C(=O)N[C@@H]1C(=O)N2[C@@H]1SC(C)(C)[C@@H]2C(=O)O [Fluclox., Flucloxacillin, reference compound]	0.05 µg/mL (≈ 0.11 µM)	0.05 µg/mL (≈ 0.11 µM)	0.05 µg/mL (≈ 0.11 µM)	0.05 µg/mL (≈ 0.11 µM)	8 µg/mL (≈ 17.6 µM)	8 µg/mL (≈ 17.6 µM)	16 µg/mL (≈ 35.3 µM)	0.05 µg/mL (≈ 0.11 µM)	0.25 µg/mL (≈ 0.551 µM)	0.25 µg/mL (≈ 0.551 µM)	8 µg/mL (≈ 17.6 µM)	8 µg/mL (≈ 17.6 µM)	0.25 µg/mL (≈ 0.551 µM)	1 µg/mL (≈ 2.2 µM)	1 µg/mL (≈ 2.2 µM)	> 16 µg/mL	0.05 µg/mL (≈ 0.11 µM)	> 16 µg/mL	0.5 µg/mL (≈ 1.1 µM)	1 µg/mL (≈ 2.2 µM)	MIC ([6]; 18 h, E. faecalis Isolate 2): 0.5 µg/mL (≈ 1.1 µM); MIC ([6]; 18 h, E. faecalis Isolate 4): 1 µg/mL (≈ 2.2 µM); MIC ([6]; 18 h, E. faecalis Isolate 5): 1 µg/mL (≈ 2.2 µM); MIC [6, 19]: 1 µg/mL (≈ 2.2 µM); MIC [7]: 0.05 µg/mL (≈ 0.11 µM); MIC [8]: 0.5 µg/mL (≈ 1.1 µM); MIC [9]: 16 µg/mL (≈ 35.3 µM); MIC ([10]; E. coli W3110R+): > 16 µg/mL; MIC ([10]; E. coli W3110R−): > 16 µg/mL; MIC [11]: > 16 µg/mL; MIC [12]: > 16 µg/mL; MIC [13]: 8 µg/mL (≈ 17.6 µM); MIC [14]: > 16 µg/mL
